Converted amounts (≈) assume the structure as drawn. Where two headings read alike, the source gives them in different places.
Key:
[1] = target: T1, SaSecA2 (Staphylococcus aureus, UniProt Q2FUW6); assay: ATPase activity assay (malachite green), SaSecA2; conditions: IC50, ATPase activity, SaSecA2, Table 7
T1 sequence (Q2FUW6 1-796): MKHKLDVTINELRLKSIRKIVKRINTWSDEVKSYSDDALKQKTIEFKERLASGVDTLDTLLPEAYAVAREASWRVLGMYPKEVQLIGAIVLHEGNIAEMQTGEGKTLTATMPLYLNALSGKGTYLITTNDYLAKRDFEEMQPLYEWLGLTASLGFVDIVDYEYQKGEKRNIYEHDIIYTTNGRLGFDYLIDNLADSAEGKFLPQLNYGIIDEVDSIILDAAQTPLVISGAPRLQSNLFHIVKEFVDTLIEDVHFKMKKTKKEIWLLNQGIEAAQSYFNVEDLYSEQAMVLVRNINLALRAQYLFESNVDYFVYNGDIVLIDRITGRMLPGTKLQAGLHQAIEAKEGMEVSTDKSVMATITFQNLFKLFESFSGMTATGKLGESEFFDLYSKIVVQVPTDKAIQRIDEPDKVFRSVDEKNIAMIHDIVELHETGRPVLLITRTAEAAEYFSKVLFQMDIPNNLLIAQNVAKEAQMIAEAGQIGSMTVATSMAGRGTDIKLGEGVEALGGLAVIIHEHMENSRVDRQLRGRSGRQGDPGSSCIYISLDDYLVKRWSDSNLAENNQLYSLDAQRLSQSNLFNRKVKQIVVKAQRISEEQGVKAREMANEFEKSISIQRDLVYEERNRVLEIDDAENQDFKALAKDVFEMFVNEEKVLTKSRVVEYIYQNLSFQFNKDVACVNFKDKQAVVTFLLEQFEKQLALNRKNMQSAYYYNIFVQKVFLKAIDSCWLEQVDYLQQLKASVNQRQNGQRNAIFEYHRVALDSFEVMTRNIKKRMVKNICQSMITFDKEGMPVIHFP

[2] = tested on: S. aureus 8325-4; assay: Bacteriostatic effect, S. aureus 8325-4 (WT); conditions: Staphylococcus aureus, 83254, read-out: Bacteriostatic effect, MIC, WT 8325-4
[3] = target: BsSecA2; conditions: read-out: IC50, Intrinsic ATPase, BsSecA2; Table 1
[4] = tested on: S. aureus 6538; assay: Bacteriostatic effect, S. aureus 6538; conditions: Staphylococcus aureus, 6538, read-out: Bacteriostatic effect, MIC, S. aureus 6538
[5] = tested on: B. anthracis Sterne; assay: microbe, parasite or virus in culture; type: cell-based; conditions: Bacillus anthracis, read-out: Bacteriostatic MIC95, B. anthracis Sterne
[6] = target: T2, SaSecA1 (Staphylococcus aureus, UniProt O06446); assay: cell-based
T2 sequence (O06446 1-843): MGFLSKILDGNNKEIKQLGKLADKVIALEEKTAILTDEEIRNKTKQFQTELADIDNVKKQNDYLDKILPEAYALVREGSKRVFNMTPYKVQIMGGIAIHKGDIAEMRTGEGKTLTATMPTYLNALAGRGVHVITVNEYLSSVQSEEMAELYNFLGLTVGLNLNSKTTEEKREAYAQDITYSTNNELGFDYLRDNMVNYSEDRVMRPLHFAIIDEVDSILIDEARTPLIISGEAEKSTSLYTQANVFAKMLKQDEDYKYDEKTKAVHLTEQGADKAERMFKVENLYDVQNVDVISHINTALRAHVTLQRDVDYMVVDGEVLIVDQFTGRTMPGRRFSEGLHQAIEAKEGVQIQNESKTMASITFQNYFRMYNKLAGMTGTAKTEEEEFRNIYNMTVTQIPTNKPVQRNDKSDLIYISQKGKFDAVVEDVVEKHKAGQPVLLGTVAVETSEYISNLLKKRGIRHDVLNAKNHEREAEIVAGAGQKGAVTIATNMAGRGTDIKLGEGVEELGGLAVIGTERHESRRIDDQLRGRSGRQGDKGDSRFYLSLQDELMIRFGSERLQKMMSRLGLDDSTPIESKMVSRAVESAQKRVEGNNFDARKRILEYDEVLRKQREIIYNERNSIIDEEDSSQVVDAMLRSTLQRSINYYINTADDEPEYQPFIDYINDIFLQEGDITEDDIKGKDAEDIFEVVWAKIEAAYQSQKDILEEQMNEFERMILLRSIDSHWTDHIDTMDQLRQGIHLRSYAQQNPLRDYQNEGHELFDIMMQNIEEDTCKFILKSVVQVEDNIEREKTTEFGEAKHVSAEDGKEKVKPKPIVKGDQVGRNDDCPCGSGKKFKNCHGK

CCCCCCC1c2ccc(O)cc2Oc2cc(O)ccc21 [SCA-50] showed an IC50 [1] of 17.5 µM, an MIC [2] of 3.7 µg/mL (≈ 12.4 µM) and an IC50 [3] of 20 µM. It also gave an MIC [4] of 3.7 µg/mL (≈ 12.4 µM), an MIC [5] of 1.7 µg/mL (≈ 5.7 µM) and an IC50 [6] of 1.1 µM. It also gave an IC50 ([6]; IC50, Ion-channel activity, SaSecA1, Table 7) of 1.1 µM.
